Laboratory results: patent publication US10857113B2, “Bezafibrate for the treatment of cancer” (Cipla Limited, priority 2016, dated 2020)

System: A498 cells
Test: In vivo animal efficacy study, subcutaneous tumor fragment xenograft
Set-up: species or system female athymic nude mice
Details: sunitinib 20 mg/kg, bezafibrate 150 mg/kg, p.o. q.d. × 21
Description: Healthy 10 female athymic nude mice were recruited for the donor cell inoculation. Animals were subcutaneously injected at flank region with 10 million A498 cells suspended in 200 μl of media and matrigel. Animals were monitored for solid tumor growth. […] Tumors were fragmented in to ˜30 mg size. […] [table] The tumor sizes were measured weekly twice from the date of tumor appearance till the end of the experiment. Tumor size was measured by digital vernier caliper (MITUTOYO) by measuring length (L=longest axis) and width (W=shortest axis). Tumor Volume (V) was calculated using formula: […] Mean tumor volume and % tumor growth inhibition (% TGI) were then calculated (SEM=standard error of mean).

## CCN(CC)CCNC(=O)c1c(C)[nH]c(/C=C2\C(=O)Nc3ccc(F)cc32)c1C [Sunitinib]
Day 1
  Tumor Growth Inhibition: 1.47%
  Tumor Volume, Mean: 145.40 mm^3
Day 6
  Tumor Growth Inhibition: 47.31%
  Tumor Volume, Mean: 174.90 mm^3
Day 9
  Tumor Growth Inhibition: 43.52%
  Tumor Volume, Mean: 261.95 mm^3
Day 13
  Tumor Growth Inhibition: 44.80%
  Tumor Volume, Mean: 340.62 mm^3
Day 16
  Tumor Growth Inhibition: 53.39%
  Tumor Volume, Mean: 448.05 mm^3
Day 20
  Tumor Growth Inhibition: 50.78%
  Tumor Volume, Mean: 630.25 mm^3
